Data taken from ChEMBL document CHEMBL3639213, “2,5-disubstituted piperidine orexin receptor antagonists” (2014).

Molecular target: T1, Orexin/Hypocretin receptor type 1 (Rattus norvegicus, UniProt P56718)
T1 sequence (P56718 whole entry): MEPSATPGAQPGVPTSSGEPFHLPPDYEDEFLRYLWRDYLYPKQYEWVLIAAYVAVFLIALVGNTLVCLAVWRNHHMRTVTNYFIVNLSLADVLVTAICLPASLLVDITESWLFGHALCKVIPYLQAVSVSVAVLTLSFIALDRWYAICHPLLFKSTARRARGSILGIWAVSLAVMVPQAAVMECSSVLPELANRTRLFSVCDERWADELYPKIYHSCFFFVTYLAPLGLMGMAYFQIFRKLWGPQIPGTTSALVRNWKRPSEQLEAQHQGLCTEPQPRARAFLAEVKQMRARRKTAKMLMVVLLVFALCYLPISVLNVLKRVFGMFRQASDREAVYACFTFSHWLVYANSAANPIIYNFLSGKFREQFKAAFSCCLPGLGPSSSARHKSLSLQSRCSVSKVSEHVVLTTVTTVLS
Assay: Radioligand Binding Assay: Compound potency can be assessed by a radioligand binding assay (described in Bergman et. al. Bioorg. Med. Chem. Lett. 2008, 18, 1425-1430) in which the inhibition constant (Ki) is determined in membranes prepared from CHO cells expressing either the orexin-1 (OX1) or orexin-2 (OX2) receptor.
Assay type: cell membranes

Ki [nM] | Structure (SMILES)
3.25 | Cc1ccc(-n2nccn2)c(C(=O)N2C[C@H](Nc3nccc4ccccc34)CC[C@H]2C)c1
1300 | C[C@@H]1CC[C@@H](Oc2cccc3ocnc23)CN1C(=O)c1ccccc1-n1nccn1

Structure (SMILES) | Ki [nM]
C[C@@H]1CC[C@@H](Oc2ccnc3c(F)cccc23)CN1C(=O)c1ccccc1-n1nccn1 | 560
